Results from patent US5147871A, “Anti-bacterial cephalosporin compounds” (Hoffmann La-Roche, Inc., priority 1991, dated 1992).
Counter-ions that a name gives are not always drawn. Like-named read-outs stand apart in the source and are kept apart here.

How the values were obtained:
Type in all cases: cell-based
P. vulgaris ATCC 6380 = test: In vitro MIC, Broth Dilution Method, P. vulgaris ATCC 6380; settings: Proteus vulgaris
Description: (§1) The in vitro activity of the compounds of the present invention as measured by the Minimum Inhibitory Concentration in micrograms/ml utilizing the Agar Well Diffusion Method or Broth Dilution Method against a variety of Gram-positive and Gram-negative organisms is as follows:
(§2) In vitro MIC (μg/ml) Broth Dilution Method

K. pneumoniae A = test: In vitro MIC, Broth Dilution Method, K. pneumoniae A; settings: Klebsiella pneumoniae
E. coli 48 = test: In vitro MIC, Broth Dilution Method, E. coli 48; settings: Escherichia coli
E. cloacae 214 = test: In vitro MIC, Broth Dilution Method, E. cloacae 214; settings: Enterobacter cloacae
Description: as §1, §2

P. aeruginosa Stone 130 = test: In vitro MIC, Broth Dilution Method, P. aeruginosa Stone 130; settings: Pseudomonas aeruginosa, STONE130
Description: as §1, §2

P. mirabilis 190 = test: In vitro MIC, Broth Dilution Method, P. mirabilis 190; settings: Proteus mirabilis
S. aureus Smith = test: In vitro MIC, Broth Dilution Method, S. aureus Smith; settings: Staphylococcus aureus
S. marcescens SM = test: In vitro MIC, Broth Dilution Method, S. marcescens SM; settings: Serratia marcescens
Description: as §1, §2

E. cloacae 9570A = test: In vitro MIC, Broth Dilution Method, E. cloacae 9570A; settings: Enterobacter cloacae
Description: as §1, §2

E. cloacae 7099 = test: In vitro MIC, Broth Dilution Method, E. cloacae 7099; settings: Enterobacter cloacae
P. aeruginosa 503-56 = test: In vitro MIC, Broth Dilution Method, P. aeruginosa 503-56; settings: Pseudomonas aeruginosa, 50356
Description: as §1, §2

E. cloacae 948-1 = test: In vitro MIC, Broth Dilution Method, E. cloacae 948-1; settings: Enterobacter cloacae, 9481
Description: as §1, §2

E. cloacae 2367-2 = test: In vitro MIC, Broth Dilution Method, E. cloacae 2367-2; settings: Enterobacter cloacae, 23672
Description: as §1, §2

S. aureus 95 = test: In vitro MIC, Broth Dilution Method, S. aureus 95; settings: Staphylococcus aureus
Description: as §1, §2

[1] = ATCC6380, P. vulgaris ATCC 6380, Broth Dilution Method, read-out: In vitro MIC

SMILES	MIC (P. vulgaris ATCC 6380; [1]) [µg/mL]	MIC (K. pneumoniae A) [µg/mL]	MIC (E. coli 48) [µg/mL]	MIC (E. cloacae 214) [µg/mL]	MIC (P. aeruginosa Stone 130) [µg/mL]	MIC (P. mirabilis 190) [µg/mL]	MIC (S. aureus Smith) [µg/mL]	MIC (S. marcescens SM) [µg/mL]	MIC (E. cloacae 9570A) [µg/mL]	MIC (E. cloacae 7099) [µg/mL]	MIC (P. aeruginosa 503-56) [µg/mL]	MIC (E. cloacae 948-1) [µg/mL]	MIC (E. cloacae 2367-2) [µg/mL]	MIC (S. aureus 95) [µg/mL]	MIC (P. vulgaris ATCC 6380; ATCC6380, read-out: In vitro MIC) [µg/mL]
CCn1cc(C(=O)OCC2=C(C(=O)O)N3C(=O)[C@@H](NC(=O)COc4ccccc4)[C@H]3SC2)c(=O)c2ccc(C)nc21 [Compound A, [6R-(6alpha,7beta)]-3-[[[(1-Ethyl-1,4-dihydro-7-methyl-4-oxo-1,8-naphthydrin-3-yl)carbonyl]oxy]methyl]-8-oxo-7-[(phenoxyacetyl)amino]-5-thia-1-azabicyclo[4.2.0]oct-2-ene-2-carboxylic acid hydrate]	8	16	32	128	128	8	0.25	16	64	16	128				
CCn1cc(C(=O)OCC2=C(C(=O)O)N3C(=O)[C@@H](NC(=O)COc4ccccc4)[C@H]3SC2)c(=O)c2cc3c(cc21)OCO3 [Compound B, [6R-(6alpha,7beta)]-3-[[[(5-Ethyl-5,8-dihydro-8-oxo-1,3-dioxolo[4,5-g]quinolin-7-yl)carbonyl]oxy]methyl]-8-oxo-7-[(phenoxyacetyl)amino]-5-thia-1-azabicyclo[4.2.0]oct-2-ene-2-carboxylic acid monosodium salt]	0.5	1	2	2	32		0.25	1	2		64	2	1	4	
CCn1cc(C(=O)OCC2=C(C(=O)O)N3C(=O)[C@@H](NC(=O)/C(=N\OC)c4csc(N)n4)[C@H]3SC2)c(=O)c2ccc(C)nc21 [Compound C, [6R-(6alpha,7beta)(Z)]-7-[[(2-Amino-4-thiazolyl) (methoxyimino)acetyl]amino]-3-[[[(1-ethyl-1,4-dihydro-7-methyl-4-oxo-1,8-naphthyridin-3-yl)carbonyl]oxy]methyl]-8-oxo-5-thia-1-azabicyclo [4.2.0]oct-2-ene-2-carboxylic acid sodium salt]	0.25		0.5	8	128	0.16	2	1	2	8	128	8	16	8	
CCn1cc(C(=O)OCC2=C(C(=O)O)N3C(=O)[C@@H](NC(=O)/C(=N\OC)c4csc(N)n4)[C@H]3SC2)c(=O)c2cc3c(cc21)OCO3 [Compound D, [6R-(6alpha,7beta)(Z)]-7-[[(2-Amino-4-thiazolyl) (methoxyimino)acetyl]amino]-3-[[[(5-ethyl-5,8-dihydro-8-oxo-1,3-dioxolo[4,5-g]quinolin-7-yl)carbonyl]oxy]methyl]-8-oxo-5-thia-1-azabicyclo [4.2.0]oct-2-ene-2-carboxylic acid sodium salt]				0.5	16	0.008	2	0.5	1	0.5	32	1	2	4	0.063
CCn1cc(C(=O)OCC2=C(C(=O)O)N3C(=O)[C@@H](NC(=O)COc4ccccc4)[C@H]3SC2)c(=O)c2cc(F)c(N3CCN(C=O)CC3)cc21 [Compound E, [6R-(6alpha,7beta)]-3-[[[[1-Ethyl-6-fluoro-1,4-dihydro-7-(4-formyl-1-piperazinyl)-4-oxo-quinolin-3-yl]-carbonyl]oxy]methyl-8-oxo-7-[(phenoxyacetyl)amino]-5-thia-1-azabicyclo[4.2.0]oct-2-ene-2-carboxylic acid sodium salt]	4	2		8	16	0.5	0.063	4	8	2	32	8	4	2	
CCn1cc(C(=O)OCC2=C(C(=O)O)N3C(=O)[C@@H](NC(=O)Cc4cccs4)[C@H]3SC2)c(=O)c2cc3c(cc21)OCO3 [Compound F, [6R-(6alpha,7beta)]-3-[[[(5-Ethyl-5,8-dihydro-8-oxo-1,3-dioxolo[4,5-g]quinolin-7-yl)carbonyl]oxy]methyl]-8-oxo-7-[(2-thienylacetyl)amino]-5-thia-1-azabicyclo-[4.2.0]oct-2-ene-2-carboxylic acid sodium salt]	0.5	1	2	2	32	0.5		1	2		64	1	1	4	
CCn1cc(C(=O)OCC2=C(C(=O)O)N3C(=O)[C@@H](NC(=O)Cc4cccs4)[C@H]3SC2)c(=O)c2cc(F)c(N3CCN(C=O)CC3)cc21 [Compound G, [6R-(6alpha,7beta)]-3-[[[[1-Ethyl-6-fluoro-1,4-dihydro-7-(4-formyl-1-piperazinyl)-4-oxoquinolin-3-yl]-carbonyl]oxy]methyl]-7-[(2-thienylacetyl)amino]-5-thia-1-azabicyclo[4.2.0]oct-2-ene-2-carboxylic acid sodium salt]	4	4	8	64	32	4	0.25	4	8	2	64	8	32	4	
CCn1cc(C(=O)OCC2=C(C(=O)O)N3C(=O)[C@@H](NC(=O)COc4ccccc4)[C@H]3SC2)c(=O)c2cc(F)c(N3CCCC3)cc21 [Compound H, [6R-(6alpha,7beta)]-3-[[[[1-Ethyl-6-fluoro-1,4-dihydro-7-(1-pyrrolidinyl)-4-oxo-quinolin-3-yl]carbonyl]oxy]methyl]-8-oxo-7-[(phenoxyacetyl)amino]-5-thia-1-azabicyclo[4.2.0]oct-2-ene-2-carboxylic acid sodium salt]	32	32	32	32	32	0.5	0.25	32	32	2	64	32	32	0.5	
CCn1cc(C(=O)OCC2=C(C(=O)O)N3C(=O)[C@@H](NC(=O)/C(=N\OC)c4csc(N)n4)[C@H]3SC2)c(=O)c2cc(F)c(N3CCCC3)cc21 [Compound I, [6R-(6alpha,7beta)(Z)]-7-[[(2-Amino-4-thiazolyl) (methoxyimino)acetyl]amino]-3-[[[[1-ethyl-6-fluoro-1,4-dihydro-7-(1-pyrrolidinyl)-4-oxoquinolin-3-yl]-carbonyl]oxy]methyl]-8-oxo-5-thia-1-azabicyclo[4.2.0]oct-2-ene-2-carboxylic acid sodium salt]	0.5	0.5	0.5	4	8	0.031	0.25	1	2	2	32	4	4	0.5	
